Data as given in patent publication US8354419B2, “Benzimidazole analogues for the treatment or prevention of flavivirus infections” (Vertex Pharmaceuticals Incorporated, priority 2009, dated 2013).

Tested on: HCV (Ib) RNA replication
Assay: Cell-based luciferase reporter HCV (1b) RNA replication assay (replicon cell lines Huh-7 5.2 and ET)
Design: species or system Hepatitis C virus
Details: Hepatitis C virus, Huh-7, 96 h, HCV 1b genotype replicon, luciferase readout, 4 days incubation; read-out: EC50_1b
Outline: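 Huh-7-derived 5.2 or ET replicon cells carrying a firefly luciferase reporter were seeded at ~3000 cells/well in medium without G418 or phenol red. Compound was added after 3-4 h, followed by 4 days at 37 °C. Luciferase readout was used, with IC50 fitted by nonlinear regression from eleven concentrations in duplicate.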

In the case of `COC(=O)N[C@H](C(=O)N1CCC[C@H]1c1nc2cc(-c3cc(F)c(-c4ccc5nc([C@@H]6CCCN6C(=O)[C@@H](NC(=O)OC)C(C)C)[nH]c5c4)cc3F)ccc2[nH]1)C(C)C` [Compound 42, ((S)-1-{(S)-2-[5-(4-{2-[(S)-1-((S)-2-Methoxycarbonylamino-3-methyl-butyryl)-pyrrolidin-2-yl]-1H-benzoimidazol-5-yl}-2,5-difluoro-phenyl)-1H-benzoimidazol-2-yl]-pyrrolidine-1-carbonyl}-2-methyl-propyl)-carbamicacid methyl ester], the EC50 is reported as no more than 5 nM.

Compound `COC(=O)N[C@H](C(=O)N1CCC[C@H]1c1nc2cc(-c3cnc(-c4ccc5[nH]c([C@@H]6CCCN6C(=O)[C@@H](NC(=O)OC)C(C)C)nc5c4)c(C)c3)ccc2[nH]1)C(C)C` [Compound 43, Methyl N-[(1S)-1-[(2S)-2-[5-[5-[2-[(2S)-1-[(2S)-2-(methoxycarbonylamino)-3-methyl-butanoyl]pyrrolidin-2-yl]-1H-benzimidazol-5-yl]-3-methyl-2-pyridyl]-1H-benzimidazol-2-yl]pyrrolidine-1-carbonyl]-2-methyl-propyl]carbamate] has an EC50 of no more than 5 nM.

Compound `COC(=O)N[C@H](C(=O)N1CCC[C@H]1c1nc2cc(-c3cscc3-c3ccc4[nH]c([C@@H]5CCCN5C(=O)[C@@H](NC(=O)OC)C(C)C)nc4c3)ccc2[nH]1)C(C)C` [Compound 44, Dimethyl-(2S,2′S)-1,1′-((2S,2′S)-2,2′-(5,5′-(thiophene-3,4-diyl)bis(1H-benzo[d]imidazole-5,2-diyl))bis(pyrrolidine-2,1-diyl))bis(3-methyl-1-oxobutane-2,1-diyl)dicarbamate] has an EC50 of no more than 5 nM.

Compound `CC(C)[C@H](NC(=O)O[C@H]1CCOC1)C(=O)N1CCC[C@H]1c1nc2cc(-c3cscc3-c3ccc4[nH]c([C@@H]5CCCN5C(=O)[C@@H](NC(=O)O[C@H]5CCOC5)C(C)C)nc4c3)ccc2[nH]1` [Compound 45, bis((S)-tetrahydrofuran-3-yl)-(2S,2′S)-1,1′-((2S,2′S)-2,2′-(5,5′-(thiophene-3,4-diyl)bis(1H-benzo[d]imidazole-5,2-diyl))bis(pyrrolidine-2,1-diyl))bis(3-methyl-1-oxobutane-2,1-diyl)dicarbamate] has an EC50 of 5 to 5000 nM.

`CC(C)[C@H](NC(=O)O[C@H]1CCOC1)C(=O)N1CCC[C@H]1c1nc2cc(-c3ccsc3-c3ccc4[nH]c([C@@H]5CCCN5C(=O)[C@@H](NC(=O)O[C@H]5CCOC5)C(C)C)nc4c3)ccc2[nH]1` [Compound 47, bis((S)-tetrahydrofuran-3-yl)-(2S,2′S)-1,1′-((2S,2′S)-2,2′-(5,5′-(thiophene-2,3-diyl)bis(1H-benzo[d]imidazole-5,2-diyl))bis(pyrrolidine-2,1-diyl))bis(3-methyl-1-oxobutane-2,1-diyl)dicarbamate] gave an EC50 of 5 to 5000 nM.

Work on `CC(C)(C)OC(=O)N1CCCC[C@H]1c1nc2cc(C#Cc3ccc4nc([C@@H]5CSCN5C(=O)OC(C)(C)C)[nH]c4c3)ccc2[nH]1` [Compound 48] yielded an EC50 greater than 5000 nM.

`O=C(OCc1ccccc1)N1CCCC[C@H]1c1nc2cc(C#Cc3ccc4nc([C@@H]5CCCN5C(=O)OCc5ccccc5)[nH]c4c3)ccc2[nH]1` [Compound 49] gave an EC50 of 5 to 5000 nM.

Work on `COC(=O)N[C@@H](C)C(=O)N1CCC[C@H]1c1nc2cc(C#Cc3ccc4[nH]c([C@@H]5CCCN5C(=O)[C@H](C)NC(=O)OC)nc4c3)ccc2[nH]1` [Compound 50] yielded an EC50 of no more than 5 nM.

For `O=C(NC1CC1)c1nc2cc(C#Cc3ccc4[nH]c([C@@H]5CCCN5C(=O)OCc5ccccc5)nc4c3)ccc2[nH]1` [Compound 51], the EC50 was 5 to 5000 nM.

Work on `COC(=O)N[C@@H](C)C(=O)N1CCC[C@H]1c1nc2cc(C#Cc3ccc4[nH]c([C@@H]5CCCCN5C(=O)OCc5ccccc5)nc4c3)ccc2[nH]1` [Compound 52] yielded an EC50 of no more than 5 nM.

Work on `COC(=O)N[C@@H](C)C(=O)N1CCC[C@H]1c1nc2cc(C#Cc3ccc4[nH]c([C@@H]5CCCN5C(=O)[C@@H](NC(=O)OC)C(C)C)nc4c3)ccc2[nH]1` [Compound 53] yielded an EC50 of no more than 5 nM.

Compound `COC(=O)N[C@@H](C)C(=O)N1CCC[C@H]1c1nc2cc(C#Cc3ccc4[nH]c([C@@H]5CCCN5C(=O)[C@@H](NC(=O)OC)C(C)(C)C)nc4c3)ccc2[nH]1` [Compound 54] has an EC50 of no more than 5 nM.

For `COC(=O)N[C@@H](C)C(=O)N1CCC[C@H]1c1nc2cc(C#Cc3ccc4[nH]c([C@@H]5CCCN5C(=O)[C@H](NC(=O)OC)c5ccccc5)nc4c3)ccc2[nH]1` [Compound 55], the EC50 was no more than 5 nM.

Work on `COC(=O)N[C@@H](C)C(=O)N1CCC[C@H]1c1nc2cc(C#Cc3ccc4[nH]c([C@@H]5CCCN5C(=O)[C@H]5CCCO5)nc4c3)ccc2[nH]1` [Compound 56] yielded an EC50 of no more than 5 nM.

`COC(=O)N[C@@H](C)C(=O)N1CCC[C@H]1c1nc2cc(C#Cc3ccc4[nH]c([C@@H]5CCCN5)nc4c3)ccc2[nH]1` [Compound 57] was tested, and the EC50 was 5 to 5000 nM.

With `COC(=O)N[C@H](C(=O)N1CCCC[C@H]1c1nc2cc(C#Cc3ccc4[nH]c([C@@H]5CCCCN5C(=O)[C@@H](NC(=O)OC)C(C)C)nc4c3)ccc2[nH]1)C(C)C` [Compound 58] the EC50 was no more than 5 nM.

In the case of `COC(=O)N[C@@H](C)C(=O)N1CCC[C@H]1c1nc2cc(C#Cc3ccc4c(c3)N=C([C@@H]3CCCN3C(=O)C(c3ccccc3)N(C)C)C4)ccc2[nH]1` (stereo partly shown) [Compound 59], the EC50 is reported as no more than 5 nM.

Compound `COC(=O)N[C@H](C(=O)N1CCCC[C@H]1c1nc2cc(C#Cc3ccc4[nH]c([C@@H]5CCCN5C(=O)[C@@H](NC(=O)OC)C(C)C)nc4c3)ccc2[nH]1)C(C)C` [Compound 60] has an EC50 of no more than 5 nM.

Compound `O=C(N1CCC[C@H]1c1nc2cc(C#Cc3ccc4[nH]c([C@@H]5CCCN5C(=O)C5(c6ccccc6)CC5)nc4c3)ccc2[nH]1)C1(c2ccccc2)CC1` [Compound 61] has an EC50 of no more than 5 nM.

`COC(=O)N[C@H](C(=O)N1CCC[C@H]1c1nc2cc(C#Cc3ccc4[nH]c([C@@H]5CCCN5C(=O)[C@H](NC(=O)OC)C(C)C)nc4c3)ccc2[nH]1)C(C)C` [Compound 62] gave an EC50 of no more than 5 nM.

Compound `COC(=O)N(C)[C@H](C(=O)N1CCC[C@H]1c1nc2cc(C#Cc3ccc4nc([C@@H]5CCCN5C(=O)[C@H](C(C)C)N(C)C(=O)OC)[nH]c4c3)ccc2[nH]1)C(C)C` [Compound 63] has an EC50 of no more than 5 nM.

`COC(=O)N[C@H](C(=O)N1CCC[C@H]1c1nc2ccc(CCc3ccc4nc([C@@H]5CCCN5C(=O)[C@@H](NC(=O)OC)C(C)C)[nH]c4c3)cc2[nH]1)C(C)C` [Compound 64] gave an EC50 of no more than 5 nM.

Work on `CC(C)[C@H](NS(C)(=O)=O)C(=O)N1CCC[C@H]1c1nc2cc(C#Cc3ccc4nc([C@@H]5CCCN5C(=O)[C@@H](NS(C)(=O)=O)C(C)C)[nH]c4c3)ccc2[nH]1` [Compound 65] yielded an EC50 of 5 to 5000 nM.

In the case of `CN1CCC[C@H]1C(=O)N1CCCC1c1nc2ccc(C#Cc3ccc4[nH]c([C@@H]5CCCN5C(=O)[C@@H]5CCCN5C)nc4c3)cc2[nH]1` (stereo partly shown) [Compound 66], the EC50 is reported as 5 to 5000 nM.

In the case of `O=C1CCC(C(=O)N2CCC[C@H]2c2nc3cc(C#Cc4ccc5nc([C@@H]6CCCN6C(=O)[C@@H]6CCC(=O)N6)[nH]c5c4)ccc3[nH]2)N1` (stereo partly shown) [Compound 67], the EC50 is reported as 5 to 5000 nM.

Work on `COC(=O)NC(C(=O)N1CCC[C@H]1c1nc2ccc(CCCCc3ccc4[nH]c([C@@H]5CCCN5C(=O)[C@@H](NC(=O)OC)C(C)C)nc4c3)cc2[nH]1)C(C)C` (stereo partly shown) [Compound 68] yielded an EC50 of no more than 5 nM.

Work on `CC(C)(C)OC(=O)N1CCC[C@H]1c1nc2cc(C#CC#Cc3ccc4[nH]c([C@@H]5CCCN5C(=O)OC(C)(C)C)nc4c3)ccc2[nH]1` [Compound 69] yielded an EC50 of 5 to 5000 nM.

For `CC(C)[C@H](NC(=O)NC1CCCC1)C(=O)N1CCCC1c1nc2cc(C#Cc3ccc4[nH]c([C@H]5CCCN5C(=O)[C@@H](NC(=O)NC5CCCC5)C(C)C)nc4c3)ccc2[nH]1` (stereo partly shown) [Compound 70], the EC50 was 5 to 5000 nM.

For `COC[C@H](NC(=O)OC)C(=O)N1CCC[C@H]1c1nc2cc(C#Cc3ccc4nc([C@@H]5CCCN5C(=O)[C@H](COC)NC(=O)OC)[nH]c4c3)ccc2[nH]1` [Compound 71], the EC50 was no more than 5 nM.

`COC(=O)N(C)[C@H](C(=O)N1CCC[C@H]1c1nc2cc(CCc3ccc4nc([C@@H]5CCCN5C(=O)[C@H](C(C)C)N(C)C(=O)OC)[nH]c4c3)ccc2[nH]1)C(C)C` [Compound 72] was tested, and the EC50 was no more than 5 nM.

Compound `COC(=O)N[C@@H](C(=O)N1CC[C@H]1c1nc2cc(C#Cc3ccc4[nH]c([C@@H]5CCN5C(=O)[C@H](NC(=O)OC)C(C)C)nc4c3)ccc2[nH]1)C(C)C` [Compound 73] has an EC50 of no more than 5 nM.

Compound `COC(=O)N[C@H](C(=O)N1CCC[C@H]1c1nc2cc(C#CC#Cc3ccc4nc([C@@H]5CCCN5C(=O)[C@H](NC(=O)OC)C(C)C)[nH]c4c3)ccc2[nH]1)C(C)C` [Compound 74] has an EC50 of no more than 5 nM.

`O=C(N1CCOCC1)N1CCC[C@H]1c1nc2cc(C#Cc3ccc4[nH]c([C@@H]5CCCN5C(=O)N5CCOCC5)nc4c3)ccc2[nH]1` [Compound 75] was tested, and the EC50 was no more than 5 nM.

Work on `COC(=O)N[C@H](C(=O)N1CCC[C@H]1c1nc2cc(C#Cc3ccc4nc([C@@H]5CCCN5C(=O)[C@@H](O)C(C)C)[nH]c4c3)ccc2[nH]1)C(C)C` [Compound 76] yielded an EC50 of no more than 5 nM.

Compound `COC(=O)N[C@H](C(=O)N1CCC[C@H]1c1nc2cc(C#Cc3ccc4nc([C@@H]5CCCN5C(=O)[C@@H](NC(=O)OC(C)(C)C)C5CCCCC5)[nH]c4c3)ccc2[nH]1)C(C)C` [Compound 77] has an EC50 of no more than 5 nM.

With `COC(=O)N[C@H](C(=O)N1CCC[C@H]1c1nc2cc(C#Cc3ccc4nc([C@@H]5CCCN5C(=O)[C@H](O)C(C)C)[nH]c4c3)ccc2[nH]1)C(C)C` [Compound 78] the EC50 was no more than 5 nM.

`C[C@@H](C(=O)N1CCC[C@H]1c1nc2cc(C#Cc3ccc4[nH]c([C@@H]5CCCN5C(=O)[C@H](C)N5CCCC5=O)nc4c3)ccc2[nH]1)N1CCCC1=O` [Compound 79] showed an EC50 of no more than 5 nM.

`O=C1CCCCCN1CC(=O)N1CCC[C@H]1c1nc2cc(C#Cc3ccc4[nH]c([C@@H]5CCCN5C(=O)CN5CCCCCC5=O)nc4c3)ccc2[nH]1` [Compound 80] gave an EC50 greater than 5000 nM.

`CC(C)[C@@H](C(=O)N1CCC[C@H]1c1nc2cc(C#Cc3ccc4[nH]c([C@@H]5CCCN5C(=O)[C@H](C(C)C)N5CCCC5=O)nc4c3)ccc2[nH]1)N1CCCC1=O` [Compound 81] showed an EC50 of no more than 5 nM.

`CC(C)[C@@H](NC(=O)O[C@H]1CCOC1)C(=O)N1CCC[C@H]1c1nc2cc(C#Cc3ccc4[nH]c([C@@H]5CCCN5C(=O)[C@H](NC(=O)O[C@H]5CCOC5)C(C)C)nc4c3)ccc2[nH]1` [Compound 82] gave an EC50 of 5 to 5000 nM.
